This is an account of results in patent US7067515B2, “Quinuclidines-substituted-multi-cyclic-heteroaryls for the treatment of disease” (Pfizer Inc., priority 2001, dated 2006).

Usually Ki stands for a measure of affinity in units of concentration, obtained from inhibition or displacement.

Where a name gives a salt, the structure may show the parent alone. Read-outs that look alike come from different tables or passages of the source.

The experiment concerns the target T1, α7 nAChR (Rattus norvegicus, UniProt Q05941).
T1 construct: brains (whole brain minus cerebellum) are dissected quickly, weighed and homogenized; from tissue; host or cells: rat brain (whole brain minus cerebellum) membrane homogenate
Briefly: [3H]-MLA competition binding assay in rat brain membranes. The procedure:
Materials and Methods for Identifying Binding Constants:
Membrane Preparation. Male Sprague-Dawley rats (300–350 g) are sacrificed by decapitation and the brains (whole brain minus cerebellum) are dissected quickly, weighed and homogenized in 9 volumes/g wet weight of ice-cold 0.32M sucrose using a rotating pestle on setting 50 (10 up and down strokes). The homogenate is centrifuged at 1,000×g for 10 minutes at 4° C. The supernatant is collected and centrifuged at 20,000×g for 20 minutes at 4° C. The resulting pellet is resuspended to a protein concentration of 1–8 mg/mL. Aliquots of 5 mL homogenate are frozen at −80° C. until needed for the assay. On the day of the assay, aliquots are thawed at room temperature and diluted with Kreb's—20 mM Hepes buffer pH 7.0 (at room temperature) containing 4.16 mM NaHCO3, 0.44 mM KH2PO4, 127 mM NaCl, 5.36 mM KCl, 1.26 mM CaCl2, and 0.98 mM MgCl2, so that 25–150 μg protein are added per test tube. Proteins are determined by the Bradford method (Bradford, M. M., Anal. Biochem., 72, 248–254, 1976) using bovine serum albumin as the standard.
Binding Assay. For saturation studies, 0.4 mL homogenate are added to test tubes containing buffer and various concentrations of radioligand, and are incubated in a final volume of 0.5 mL for 1 hour at 25° C. Nonspecific binding was determined in tissues incubated in parallel in the presence of 1 μM MLA, added before the radioligand. In competition studies, drugs are added in increasing concentrations to the test tubes before addition of approximately 3.0 to 4.0 nM [^3H]-MLA. The incubations are terminated by rapid vacuum filtration through Whatman GF/B glass filter paper mounted on a 48 well Brandel cell harvester. Filters are pre-soaked in 50 mM Tris HCl pH 7.0–0.05% polyethylenimine. The filters are rapidly washed two times with 5 mL aliquots of cold 0.9% saline and then counted for radioactivity by liquid scintillation spectrometry.
Data Analysis. In competition binding studies, the inhibition constant (Ki) was calculated from the concentration dependent inhibition of [^3H]-MLA binding obtained from non-linear regression fitting program according to the Cheng-Prusoff equation (Cheng, Y. C. and Prussoff, W. H., Biochem. Pharmacol., 22, p. 3099–3108, 1973). Hill coefficients were obtained using non-linear regression (GraphPad Prism sigmoidal dose-response with variable slope).

Where [1] appears, read: competition with approximately 3.0 to 4.0 nM [3H]-MLA, rat brain (whole brain minus cerebellum) homogenate, 1 hour at 25° C, Cheng-Prusoff, read-out: Ki Value.

T1 sequence (Q05941 23-502): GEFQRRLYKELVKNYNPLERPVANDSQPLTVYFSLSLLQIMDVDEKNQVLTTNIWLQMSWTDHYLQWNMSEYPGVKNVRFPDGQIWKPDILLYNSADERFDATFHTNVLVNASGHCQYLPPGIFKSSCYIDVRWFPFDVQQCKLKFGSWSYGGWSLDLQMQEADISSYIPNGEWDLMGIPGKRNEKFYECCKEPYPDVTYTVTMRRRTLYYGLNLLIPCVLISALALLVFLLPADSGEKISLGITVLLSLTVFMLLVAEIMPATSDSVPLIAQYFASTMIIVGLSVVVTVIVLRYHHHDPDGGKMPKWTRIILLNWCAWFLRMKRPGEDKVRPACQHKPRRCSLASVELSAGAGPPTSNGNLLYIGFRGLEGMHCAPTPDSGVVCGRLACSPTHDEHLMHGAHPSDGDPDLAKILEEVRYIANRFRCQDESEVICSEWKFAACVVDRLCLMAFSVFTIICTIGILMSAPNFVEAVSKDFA

The molecule `O=C(N[C@H]1CN2CCC1CC2)c1cc2c(cn1)OCC2` [Example 1, N-[(3R)-1-azabicyclo[2.2.2]oct-3-yl]-2,3-dihydrofuro[2,3-c]pyridine-5-carboxamide dihydrochloride] registered an inhibition constant (Ki) of 50 to 60 nM. Turning to `O=C(N[C@H]1CN2CCC1CC2)c1cc2cnccc2o1` [Example 2, N-[(3R)-1-azabicyclo[2.2.2]oct-3-yl]furo[3,2-c]pyridine-2-carboxamide], the Ki under setting [1] turned out to be 1300 nM. In the case of `O=C(N[C@H]1CN2CCC1CC2)c1cc2ccoc2c(Cl)n1` [Example 3, N-[(3R)-1-azabicyclo[2.2.2]oct-3-yl]-7-chlorofuro[2,3-c]pyridine-5-carboxamide hydrochloride], the Ki under setting [1] was 2250 nM. Same read-out and setting: next, `O=C(N[C@H]1CN2CCC1CC2)c1cc2ccoc2cn1` [Example 4, N-[(3R)-1-azabicyclo[2.2.2]oct-3-yl]furo[2,3-c]pyridine-5-carboxamide dihydrochloride]: 9 to 10 nM. Molecule `Cc1cc2cc(C(=O)N[C@H]3CN4CCC3CC4)ncc2o1` [Example 6, N-[(3R)-1-azabicyclo[2.2.2]oct-3-yl]-2-methylfuro[2,3-c]pyridine-5-carboxamide dihydrochloride] came in with an inhibitory constant (Ki) of 119 nM. The same measure, in the same setting: next, `Cc1coc2cnc(C(=O)N[C@H]3CN4CCC3CC4)cc12` [Example 9, N-[(3R)-1-azabicyclo[2.2.2]oct-3-yl]-3-methylfuro[2,3-c]pyridine-5-carboxamide]: 1 to 6 nM; `O=C(N[C@H]1CN2CCC1CC2)c1cc2cccnc2s1` [Example 13, N-((3R)-1-azabicyclo[2.2.2]oct-3-yl)thieno[2,3-b]pyridine-2-carboxamide dihydrochloride]: 108 nM; `O=C(N[C@H]1CN2CCC1CC2)c1cc2ccncc2s1` [Example 17, N-[(3R)-1-azabicyclo[2.2.2]oct-3-yl]thieno[2,3-c]pyridine-2-carboxamide dihydrochloride]: 65 nM. Same read-out and setting: the figure for `O=C(N[C@H]1CN2CCC1CC2)c1ccc2sccc2n1` [Example 19, N-[(3R)-1-azabicyclo[2.2.2]oct-3-yl]thieno[3,2-b]pyridine-5-carboxamide dihydrochloride] is 274 nM; for `O=C(N[C@H]1CN2CCC1CC2)c1cnc2ccsc2c1` [Example 20, N-[(3R)-1-azabicyclo[2.2.2]oct-3-yl]thieno[3,2-b]pyridine-6-carboxamide dihydrochloride] it is 952 nM. As to `O=C(N[C@H]1CN2CCC1CC2)c1cc2cnccc2s1` [Example 21, N-[(3R)-1-azabicyclo[2.2.2]oct-3-yl]thieno[3,2-c]pyridine-2-carboxamide dihydrochloride], the Ki under setting [1] came out at 269 nM. `O=C(N[C@H]1CN2CCC1CC2)c1cc2ccsc2cn1` [Example 22, N-[(3R)-1-azabicyclo[2.2.2]oct-3-yl]thieno[2,3-c]pyridine-5-carboxamide dihydrochloride] yielded a Ki of 5 nM. For `O=C(N[C@H]1CN2CCC1CC2)c1cc2sccc2cn1` [Example 23, N-[(3R)-1-azabicyclo[2.2.2]oct-3-yl]thieno[3,2-c]pyridine-6-carboxamide dihydrochloride], under setting [1], the Ki was 5 nM. Molecule `O=C(N[C@H]1CN2CCC1CC2)c1cc2c(Cl)coc2cn1` [Example 28, N-[(3R)-1-Azabicyclo[2.2.2]oct-3-yl]-3-chlorofuro[2,3-c]pyridine-5-carboxamide dihydrochloride] came in with a Ki of 3 nM. `O=C(N[C@H]1CN2CCC1CC2)c1cc2c(Br)coc2cn1` [Example 29, N-[(3R)-1-Azabicyclo[2.2.2]oct-3-yl]-3-bromofuro[2,3-c]pyridine-5-carboxamide] gave an inhibitory constant (Ki) of 4 nM. The same measure, in the same setting: next, `O=C(N[C@H]1CN2CCC1CC2)c1cc2occc2cn1` [Example 30, N-[(3R)-1-Azabicyclo[2.2.2]oct-3-yl]furo[3,2-c]pyridine-6-carboxamide dihydrochloride]: 45 nM. The molecule `O=C(N[C@H]1CN2CCC1CC2)c1cc2c(Br)csc2cn1` [Example 31, N-[(3R)-1-azabicyclo[2.2.2]oct-3-yl]-3-bromothieno[2,3-c]pyridine-5-carboxamide] gave an inhibition constant Ki of 9 nM.

Regarding `C[C@H]1[C@H](NC(=O)c2cc3ccoc3cn2)C2CCN1CC2` [Example 33, N-[(2S,3R)-2-methyl-1-azabicyclo[2.2.2]oct-3-yl]furo[2,3-c]pyridine-5-carboxamide dihydrochloride], the affinity corresponds to a Ki of 15 nM.

For `Cc1coc2cnc(C(=O)N[C@@H]3C4CCN(CC4)[C@H]3C)cc12` [Example 34, 3-methyl-N-[(2S,3R)-2-methyl-1-azabicyclo[2.2.2]oct-3-yl]furo[2,3-c]pyridine-5-carboxamide dihydrochloride], the inhibition constant Ki is 15 nM. The same measure, in the same setting: next, `C[C@H]1[C@H](NC(=O)c2cc3ccsc3cn2)C2CCN1CC2` [Example 35, N-[(2S,3R)-2-methyl-1-azabicyclo[2.2.2]oct-3-yl]thieno[2,3-c]pyridine-5-carboxamide dihydrochloride]: 18 nM; `C[C@H]1[C@H](NC(=O)c2cc3sccc3cn2)C2CCN1CC2` [Example 36, N-[(2S,3R)-2-methyl-1-azabicyclo[2.2.2]oct-3-yl]thieno[3,2-c]pyridine-6-carboxamide dihydrochloride]: 12 nM; `O=C(N[C@H]1CN2CCC1CC2)c1cc2cscc2cn1` [Example 40, N-[(3R)-1-azabicyclo[2.2.2]oct-3-yl]thieno[3,4-c]pyridine-6-carboxamide methanesulfonate]: 25 nM.
